Experimental data: PubChem BioAssay AID1963983 (Molecular Pharmacology Branch, DTP, NCI, 2024)
One block for each compound: values may come before it.

Test system: 186277-243-T-J2-PDC multi-cell spheroid viability
Test: Anticancer human tumor 186277-243-T-J2-PDC patient-derived colon adenocarcinoma cell line growth inhibition [PI3K]
Conditions: for viability, T/C: stronger effect = lower value
How it was run: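 Agents were dosed from a top concentration near clinical Cmax (otherwise 10 microM) in half-log decrements, alone or combined with PI3K inhibitors. The spheroids contain tumor cells plus endothelial (HUVEC) and MSC stroma; viability is measured.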

[1] = curve of first compound, second compound 0.0316 µM
[2] = curve of first compound, second compound 0.1 µM
[3] = curve of first compound, second compound 0.316 µM
[4] = curve of first compound, second compound 1 µM
[5] = second compound 0.0316 µM, first compound 0.0316 µM
[6] = second compound 0.0316 µM, first compound 0.1 µM
[7] = second compound 0.0316 µM, first compound 0.316 µM
[8] = second compound 0.0316 µM, first compound 1 µM
[9] = second compound 0.1 µM, first compound 0.0316 µM
[10] = second compound 0.1 µM, first compound 0.1 µM
[11] = second compound 0.1 µM, first compound 0.316 µM
[12] = second compound 0.1 µM, first compound 1 µM
[13] = second compound 0.316 µM, first compound 0.0316 µM
[14] = second compound 0.316 µM, first compound 0.1 µM
[15] = second compound 0.316 µM, first compound 0.316 µM
[16] = second compound 0.316 µM, first compound 1 µM
[17] = second compound 1 µM, first compound 0.0316 µM
[18] = second compound 1 µM, first compound 0.1 µM
[19] = second compound 1 µM, first compound 0.316 µM
[20] = second compound 1 µM, first compound 1 µM
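Note: spheroids exposed to compounds for seven days before viability reading.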
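Throughout, for viability, T/C: 100% = DMSO vehicle control viability.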

IC50 [1]: 2.8 µM | IC50 [2]: 2.38 µM | IC50 [3]: 2.4 µM | IC50 [4]: 2.09 µM | IC50 (curve of first compound, second compound 3.16 µM): 1.16 µM | IC50 (curve of first compound, second compound 10 µM): 0.339 µM
Structure (SMILES): Cn1nccc1Nc1nccc(-c2ccn(C(CO)c3ccc(Cl)c(F)c3)c(=O)c2)n1 (stereo unspecified) + CC(Nc1ncnc2nc[nH]c12)c1cc2cccc(Cl)c2c(=O)n1-c1ccccc1
viability, T/C [5]: 82.5% | viability, T/C [6]: 86.9% | viability, T/C [7]: 112% | viability, T/C [8]: 83.7% | viability, T/C (second compound 0.0316 µM, first compound 3.16 µM): 46.3% | viability, T/C (second compound 0.0316 µM, first compound 10 µM): 23.6% | viability, T/C [9]: 85.3% | viability, T/C [10]: 103% | viability, T/C [11]: 107% | viability, T/C [12]: 89.1% | viability, T/C (second compound 0.1 µM, first compound 3.16 µM): 37.2% | viability, T/C (second compound 0.1 µM, first compound 10 µM): 26.2% | viability, T/C [13]: 94.7% | viability, T/C [14]: 96.1% | viability, T/C [15]: 125% | viability, T/C [16]: 83.1% | viability, T/C (second compound 0.316 µM, first compound 3.16 µM): 40.9% | viability, T/C (second compound 0.316 µM, first compound 10 µM): 23.7% | viability, T/C [17]: 94.3% | viability, T/C [18]: 101% | viability, T/C [19]: 103% | viability, T/C [20]: 75.7% | viability, T/C (second compound 1 µM, first compound 3.16 µM): 36.3% | viability, T/C (second compound 1 µM, first compound 10 µM): 24.3% | viability, T/C (second compound 3.16 µM, first compound 0.0316 µM): 106% | viability, T/C (second compound 3.16 µM, first compound 0.1 µM): 100% | viability, T/C (second compound 3.16 µM, first compound 0.316 µM): 105% | viability, T/C (second compound 3.16 µM, first compound 1 µM): 53.9% | viability, T/C (second compound 3.16 µM, first compound 3.16 µM): 27.6% | viability, T/C (second compound 3.16 µM, first compound 10 µM): 20.8% | viability, T/C (second compound 10 µM, first compound 0.0316 µM): 88.7% | viability, T/C (second compound 10 µM, first compound 0.1 µM): 91.4% | viability, T/C (second compound 10 µM, first compound 0.316 µM): 51% | viability, T/C (second compound 10 µM, first compound 1 µM): 27.5% | viability, T/C (second compound 10 µM, first compound 3.16 µM): 24.5% | viability, T/C (second compound 10 µM, first compound 10 µM): 15.5%

IC50 (compound alone, run of 05/09/2023): > 10 µM
Structure (SMILES): CC(Nc1ncnc2nc[nH]c12)c1cc2cccc(Cl)c2c(=O)n1-c1ccccc1 (stereo unspecified)
viability, T/C (compound 0.0316 µM): 97.5% [middle of 8 runs] | viability, T/C (compound 0.1 µM): 102% [middle of 8 runs] | viability, T/C (compound 0.316 µM): 101% [middle of 8 runs] | viability, T/C (compound 1 µM): 101% [middle of 8 runs] | viability, T/C (compound 3.16 µM): 98.6% [middle of 8 runs] | viability, T/C (compound 10 µM): 99.5% [middle of 8 runs]

IC50 (curve of first compound, second compound 0.00316 µM): > 1 µM | IC50 (curve of first compound, second compound 0.01 µM): > 1 µM | IC50 [1]: 0.234 µM | IC50 [2]: < 0.00316 µM | IC50 [3]: < 0.00316 µM | IC50 [4]: < 0.00316 µM
Structure (SMILES): CCN1CCN(Cc2ccc(Nc3ncc(F)c(-c4cc(F)c5nc(C)n(C(C)C)c5c4)n3)nc2)CC1 + COc1c(OCCCN2CCOCC2)ccc2c3n(c(=NC(=O)c4cnc(N)nc4)nc12)CCN3
viability, T/C (second compound 0.00316 µM, first compound 0.00316 µM): 95.3% | viability, T/C (second compound 0.00316 µM, first compound 0.01 µM): 111% | viability, T/C (second compound 0.00316 µM, first compound 0.0316 µM): 94.3% | viability, T/C (second compound 0.00316 µM, first compound 0.1 µM): 134% | viability, T/C (second compound 0.00316 µM, first compound 0.316 µM): 151% | viability, T/C (second compound 0.00316 µM, first compound 1 µM): 108% | viability, T/C (second compound 0.01 µM, first compound 0.00316 µM): 101% | viability, T/C (second compound 0.01 µM, first compound 0.01 µM): 107% | viability, T/C (second compound 0.01 µM, first compound 0.0316 µM): 113% | viability, T/C (second compound 0.01 µM, first compound 0.1 µM): 112% | viability, T/C (second compound 0.01 µM, first compound 0.316 µM): 123% | viability, T/C (second compound 0.01 µM, first compound 1 µM): 69.4% | viability, T/C (second compound 0.0316 µM, first compound 0.00316 µM): 68.4% | viability, T/C (second compound 0.0316 µM, first compound 0.01 µM): 59.7% | viability, T/C [5]: 57.8% | viability, T/C [6]: 52.4% | viability, T/C [7]: 54.8% | viability, T/C [8]: 33.2% | viability, T/C (second compound 0.1 µM, first compound 0.00316 µM): 19.9% | viability, T/C (second compound 0.1 µM, first compound 0.01 µM): 17.7% | viability, T/C [9]: 16% | viability, T/C [10]: 13% | viability, T/C [11]: 14.5% | viability, T/C [12]: 12.8% | viability, T/C (second compound 0.316 µM, first compound 0.00316 µM): 6.67% | viability, T/C (second compound 0.316 µM, first compound 0.01 µM): 7.13% | viability, T/C [13]: 4.73% | viability, T/C [14]: 3.28% | viability, T/C [15]: 6.05% | viability, T/C [16]: 7.03% | viability, T/C (second compound 1 µM, first compound 0.00316 µM): 2.68% | viability, T/C (second compound 1 µM, first compound 0.01 µM): 3% | viability, T/C [17]: 2.82% | viability, T/C [18]: 2.7% | viability, T/C [19]: 7% | viability, T/C [20]: 4.26%
